Results taken from patent publication US20030224978A1, “Compounds and methods for modulating apoptosis” (McGill University, priority 1996, published 2003).
“Also recorded” adds a separate entry of the source. Positions of bridges follow the written chain, without caps; N, C: chain ends. Residues, ends and D or L forms follow the SMILES beside them.

How the values were obtained:
[1] = target: L1 (Homo sapiens, UniProt P32004); assay: L1 response: neurite outgrowth of rat cerebellar neurons on L1 expressing 3T3 cells (Example 14); type: cell-based; design: expressed in transfected cells; host or cells: 3T3 cells (stably transfected); conditions: 100 μg/mL, concentrations that substantially inhibited the N-cadherin response
Sequence of L1 (P32004 20-1257): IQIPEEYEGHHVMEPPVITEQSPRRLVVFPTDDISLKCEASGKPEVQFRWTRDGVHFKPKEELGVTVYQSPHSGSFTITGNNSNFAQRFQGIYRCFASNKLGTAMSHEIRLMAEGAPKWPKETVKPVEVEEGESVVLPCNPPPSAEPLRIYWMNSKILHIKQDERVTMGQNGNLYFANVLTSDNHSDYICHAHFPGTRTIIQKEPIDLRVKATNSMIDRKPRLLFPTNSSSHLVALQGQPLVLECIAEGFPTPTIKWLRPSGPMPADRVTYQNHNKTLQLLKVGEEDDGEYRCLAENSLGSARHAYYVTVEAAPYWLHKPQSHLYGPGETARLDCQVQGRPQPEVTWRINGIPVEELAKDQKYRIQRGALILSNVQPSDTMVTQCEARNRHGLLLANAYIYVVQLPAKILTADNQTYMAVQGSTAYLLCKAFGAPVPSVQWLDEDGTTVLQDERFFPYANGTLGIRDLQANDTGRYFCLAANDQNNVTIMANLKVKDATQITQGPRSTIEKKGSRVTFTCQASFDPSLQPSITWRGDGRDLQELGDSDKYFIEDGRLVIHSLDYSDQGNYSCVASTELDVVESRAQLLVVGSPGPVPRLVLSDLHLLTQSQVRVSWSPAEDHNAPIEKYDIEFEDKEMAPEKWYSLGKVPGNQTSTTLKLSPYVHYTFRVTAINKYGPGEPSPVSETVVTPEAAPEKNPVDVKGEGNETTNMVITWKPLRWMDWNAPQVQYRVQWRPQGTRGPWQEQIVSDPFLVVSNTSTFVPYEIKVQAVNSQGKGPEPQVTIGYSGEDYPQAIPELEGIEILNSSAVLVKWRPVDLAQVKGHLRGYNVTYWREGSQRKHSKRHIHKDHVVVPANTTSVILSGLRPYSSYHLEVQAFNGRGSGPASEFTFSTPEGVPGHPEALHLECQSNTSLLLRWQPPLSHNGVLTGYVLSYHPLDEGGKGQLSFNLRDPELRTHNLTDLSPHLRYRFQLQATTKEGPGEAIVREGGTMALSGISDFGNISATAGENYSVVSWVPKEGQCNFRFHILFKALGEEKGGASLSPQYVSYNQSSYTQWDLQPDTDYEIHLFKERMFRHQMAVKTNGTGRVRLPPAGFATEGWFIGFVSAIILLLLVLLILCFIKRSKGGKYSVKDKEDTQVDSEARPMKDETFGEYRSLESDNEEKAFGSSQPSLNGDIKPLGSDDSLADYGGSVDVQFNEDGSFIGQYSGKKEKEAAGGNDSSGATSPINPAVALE
Description: FIG. 26 is a bar graph illustrating the effects of the cyclic peptides N-Ac-CHAVDC-NH2 (SEQ ID NO:11), N-Ac-CHAVDIC-NH2 (SEQ ID NO:62) and N-Ac-[…]-NH2 (SEQ ID NO:63) on L1 function. Cerebellar neurons were cultured on monolayers of control 3T3 cells and L1 expressing 3T3 cells for 16-18 hours in control media (unshaded) or control media supplemented with peptides N-Ac-CHAVDC-NH2 (SEQ ID NO:11; diagonal rising right), N-Ac-CHAVDIC-NH2 (SEQ ID NO:62); diagonal cross hatch) or N-Ac-[…]-NH2 (SEQ ID NO:63; diagonal rising left) at a concentration of 100 μg/mL. The cultures were then fixed and neurite outgrowth determined by measuring the length of the longest neurite from a total of 150-200 neurons sampled in replicate cultures for each experimental condition. […] The results are pooled from three independent experiments, and the bars show the s.e.m.
Cell culture and neurite outgrowth assays. Co-cultures of cerebellar neurons on monolayers of control 3T3 cells and monolayers of transfected 3T3 cells that express physiological levels of chick N-cadherin or human L1 were established as previously described (Williams et al., Neuron 13:583-594, 1994). In brief, 80,000 3T3 cells (control and transfected) were plated into individual chambers of an eight-chamber tissue culture slide coated with polylysine and fibronectin and cultured in DMEM/10% FCS. After 24 hours, when confluent monolayers had formed, the medium was removed and 3000 cerebellar neurons isolated from post-natal day 2-3 rats were plated into each well in SATO media (Doherty et al., Nature 343:464-466, 1990) supplemented with 2% FCS. All of the test peptides were added immediately before the neurons as a 2×stock prepared in SATO/2% FCS. […] The mean length of the longest neurite per cell was measured for 150-200 neurons sampled in replicate cultures as previously described (Williams et al., Neuron 13:583-594, 1994). […] Dose-response curves were evaluated and the EC50 values determined. […]

[2] = target: T1, chick N-cadherin (Gallus gallus, UniProt P10288); assay: N-cadherin dependent neurite outgrowth of rat cerebellar neurons on N-cadherin expressing 3T3 cells (Example 14); type: cell-based; conditions: for inhibition at 125 µg/mL: 125 μg/mL; for inhibition at 125 µg/mL / inhibition at 250 µg/mL: 16-18 hours; for inhibitory activity on N-cadherin dependent neurite outgrowth, in words: Tables 8 and 9, 250 or 125 μg/mL; for inhibition at 250 µg/mL: 250 μg/mL
T1 construct: expressed in transfected cells; host or cells: 3T3 fibroblasts
T1 sequence (P10288 165-912): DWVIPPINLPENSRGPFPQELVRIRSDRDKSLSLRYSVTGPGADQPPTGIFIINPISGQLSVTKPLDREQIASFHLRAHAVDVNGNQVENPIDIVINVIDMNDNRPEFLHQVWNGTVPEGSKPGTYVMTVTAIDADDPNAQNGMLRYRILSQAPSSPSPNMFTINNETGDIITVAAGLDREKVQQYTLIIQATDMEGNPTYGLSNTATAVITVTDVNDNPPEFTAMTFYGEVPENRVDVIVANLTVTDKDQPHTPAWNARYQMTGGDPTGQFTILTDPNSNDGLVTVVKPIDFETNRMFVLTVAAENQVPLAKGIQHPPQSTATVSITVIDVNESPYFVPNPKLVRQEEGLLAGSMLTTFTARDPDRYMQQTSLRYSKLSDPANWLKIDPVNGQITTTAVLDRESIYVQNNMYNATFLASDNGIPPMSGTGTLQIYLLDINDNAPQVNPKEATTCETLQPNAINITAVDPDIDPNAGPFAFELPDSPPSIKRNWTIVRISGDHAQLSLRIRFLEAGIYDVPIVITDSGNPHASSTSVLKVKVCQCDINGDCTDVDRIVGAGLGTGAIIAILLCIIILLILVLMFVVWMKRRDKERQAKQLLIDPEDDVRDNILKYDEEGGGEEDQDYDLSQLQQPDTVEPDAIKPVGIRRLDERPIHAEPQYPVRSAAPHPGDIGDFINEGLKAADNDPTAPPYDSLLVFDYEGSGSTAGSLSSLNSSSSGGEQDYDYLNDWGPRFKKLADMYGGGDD
Description: Cell culture and neurite outgrowth assays. Co-cultures of cerebellar neurons on monolayers of control 3T3 cells and monolayers of transfected 3T3 cells that express physiological levels of chick N-cadherin or human L1 were established as previously described (Williams et al., Neuron 13:583-594, 1994). In brief, 80,000 3T3 cells (control and transfected) were plated into individual chambers of an eight-chamber tissue culture slide coated with polylysine and fibronectin and cultured in DMEM/10% FCS. After 24 hours, when confluent monolayers had formed, the medium was removed and 3000 cerebellar neurons isolated from post-natal day 2-3 rats were plated into each well in SATO media (Doherty et al., Nature 343:464-466, 1990) supplemented with 2% FCS. All of the test peptides were added immediately before the neurons as a 2×stock prepared in SATO/2% FCS. The co-cultures were maintained for 16-18 hours, at which time they were fixed and immunostained for GAP-43 which is present only in the neurons and delineates the neuritic processes. The mean length of the longest neurite per cell was measured for 150-200 neurons sampled in replicate cultures as previously described (Williams et al., Neuron 13:583-594, 1994). […] Dose-response curves were evaluated and the EC50 values determined.
Effects of cyclic HAV peptides on N-cadherin function. The ability of N-Ac-CHAVC-NH2 (SEQ ID NO:10; compound 1) to inhibit neurite outgrowth was initially tested. This cyclic peptide has the cadherin CAR sequence (HAV) and no flanking amino acid residues. Neurons were cultured on confluent monolayers of control (untransfected) and N-cadherin expressing 3T3 cells for 16-18 hours. The cells were then fixed and the length of the longest neurite on 150-200 neurons was determined by standard assay, as described above. FIG. 24 gives the mean neurite length in a representative experiment where cerebellar neurons have been cultured over control and N-cadherin expressing cells. In the absence of peptide, the mean length of the longest neurite per cell was approximately double on the N-cadherin expressing cells, as compared to 3T3 cells. This response requires N-cadherin function in both the neuron and transfected fibroblast.

[3] = system: bovine pulmonary artery endothelial cells; assay: Disruption of bovine endothelial cell adhesion; type: cell-based; conditions: 500 μg/ml, 30 minutes
Description: For use within one such assay, bovine pulmonary artery endothelial cells may be harvested by sterile ablation and digestion in 0.1% collagenase (type II; Worthington Enzymes, Freehold, N.J.). Cells may be maintained in Dulbecco's minimum essential medium supplemented with 10% fetal calf serum and 1% antibiotic-antimycotic at 37° C. in 7% CO2 in air. Cultures may be passaged weekly in trypsin-EDTA and seeded onto tissue culture plastic at 20,000 cells/cm^2. Endothelial cultures may be used at 1 week in culture, which is approximately 3 days after culture confluency is established. The cells may be seeded onto coverslips and treated (e.g., for 30 minutes) with modulating agent or a control compound at, for example, 500 μg/ml and then fixed with 1% paraformaldehyde. As noted above, disruption of cell adhesion may be determined visually within 24 hours, by observing retraction of the cells from one another. This assay evaluates the effect of a modulating agent on N-cadherin mediated cell adhesion.
Bovine pulmonary artery endothelial cells were harvested by sterile ablation and digestion in 0.1% collagenase (type II; Worthington Enzymes, Freehold, N.J.). Cells were maintained in Dulbecco's […] essential medium (Clonetics, San Diego, Calif.) supplemented with 10% fetal calf serum (Atlantic Biologicals, Nor cross, Ga.) and 1% antibiotic-antimycotic at 37° C. in 7% CO2 in air. Cultures were passaged weekly in trypsin-EDTA (Gibco, Grand Island, N.Y.) and seeded onto tissue culture plastic at 20,000 cells/cm^2 for all experiments. Endothelial cultures were used at 1 week in culture, which is approximately 3 days after culture confluency was established. The cells used in all protocols were between 4th passage and 10th passage. The cells were seeded onto coverslips and treated 30 minutes with N-Ac-CHAVC-NH2 (SEQ ID NO:10) or N-Ac-CHGVC-NH2 (SEQ ID NO:20) at 500 μg/ml and then fixed with 1% paraformaldehyde.

[4] = in vitro; type: cell-based; conditions: human
Description: (§1) N-Ac-CHAVC-NH2 (SEQ ID NO:10) and the control peptide N-Ac-CHGVC-NH2 (SEQ ID NO:20) were evaluated for possible cytotoxic effects on human microvascular endothelial (HMVEC; Clonetics), human umbilical vein endothelial (HUVEC; ATCC #CRL-1730), IAFp2 (human fibroblast cell line; Institute Armand-Frapier, Montreal, Quebec), WI-38 (human fibroblast cell line; ATCC #CCL-75), MDA-MB231 (human breast cancer cell line; ATCC #HTB-26), and PC-3 (human prostate cancer cell line; ATCC #CRL-1435) cells utilizing the MTT assay (Plumb et al., Cancer Res. 49:4435-4440, 1989). Neither of the peptides was cytotoxic at concentrations up to and including 100 μM. Similarly, neither of the peptides was capable of inhibiting the proliferation of the above cell lines at concentrations up to 100 μM, as judged by ^3H-thymidine incorporation assays.

[5] = in vitro; type: cell-based; conditions: human; remark: listed apart in the source
Description: as §1

[6] = in vitro; type: cell-based; conditions: human; remark: listed apart in the source
Description: as §1

[7] = in vitro; type: cell-based; conditions: human; remark: listed apart in the source
Description: as §1

[8] = system: angiogenesis in chick embryonic chorioallantoic membranes; assay: Chick chorioallantoic membrane angiogenesis assay; type: in vivo; conditions: for percent inhibition of angiogenesis: 24 hours
Description: The chick chorioallantoic membrane assay was used to assess the effects of cyclic peptides on angiogenesis (Iruela-Arispe et al., Molecular Biology of the Cell 6:327-343, 1995). Cyclic peptides were embedded in a mesh composed of vitrogen at concentrations of 3, 17, and 33 μg/mesh. The meshes were then applied to 12-day-old chick embryonic chorioallantoic membranes. After 24 hours, the effects of the peptides on angiogenesis were assessed by computer assisted morphometric analysis.
For each concentration of cyclic peptide, the percent inhibition of angiogenesis (relative to the level of angiogenesis in the absence of cyclic peptide) is provided. Assays were performed in the presence (+) or absence (−) of […] VEGF. For example, the cyclic peptide N-Ac-CHAVC-NH2 (SEQ ID NO:10) inhibited angiogenesis by 46%, 51%, and 51% at concentrations of 3, 17, and 33 μg/mesh, respectively.

Compound	effect on L1 response (neurite outgrowth over L1 expressing 3T3 cells) [1]	inhibition at 125 µg/mL ([2]; NIH3T3)	inhibitory activity on N-cadherin dependent neurite outgrowth, in words [2]	EC50 ([2]; from dose-response curve)	inhibition at 33 µg/mL ([2]; NIH3T3, 33 μg/mL)	effect on endothelial cell monolayer / morphology [3]	IC50 [4]	IC50 [5]	IC50 [6]	IC50 [7]	inhibition at 250 µg/mL ([2]; NIH3T3)	percent inhibition of angiogenesis ([8]; 3 μg/mesh, absence (−) of 0.01 mM VEGF)	percent inhibition of angiogenesis ([8]; 3 μg/mesh, presence (+) of 0.01 mM VEGF)	percent inhibition of angiogenesis ([8]; 17 μg/mesh, absence (−) of 0.01 mM VEGF)	percent inhibition of angiogenesis ([8]; 17 μg/mesh, presence (+) of 0.01 mM VEGF)	percent inhibition of angiogenesis ([8]; 33 μg/mesh, absence (−) of 0.01 mM VEGF)	percent inhibition of angiogenesis ([8]; 33 μg/mesh, presence (+) of 0.01 mM VEGF)	inhibition of angiogenesis, in words ([8]; 3, 17, and 33 μg/mesh)	reduction in inhibitory activity on flanking HAV with E-cadherin amino acids ([2]; Table 8, 250 μg/mL)
CC[C@H](C)[C@@H]1NC(=O)[C@H](CC(=O)O)NC(=O)[C@H](C(C)C)NC(=O)[C@H](C)NC(=O)[C@H](Cc2c[nH]cn2)NC(=O)[C@@H](NC(C)=O)CSSC[C@@H](C(N)=O)NC(=O)[C@H](CC(N)=O)NC1=O (Ac-CHAVDINC-NH2; disulfide 1-8)	did not interfere with the ability of neurons to extend neurites over 3T3 cells expressing L1; also recorded: not inhibited	62 ± 3.4%	only a slight loss in activity; also recorded: potent inhibitors	70 µM	–	–	–	–	–	–	–	–	–	–	–	–	–	–	–
CC(=O)N[C@H]1CSSC[C@@H](C(N)=O)NC(=O)[C@H](CC(=O)O)NC(=O)[C@H](C(C)C)NC(=O)[C@H](C)NC(=O)[C@H](Cc2c[nH]cn2)NC1=O [N-Ac-CHAVDC-NH2] (Ac-CHAVDC-NH2; disulfide 1-6)	did not interfere with the ability of neurons to extend neurites over 3T3 cells expressing L1; also recorded: not inhibited	77.1 ± 8.4%	dramatically increased the inhibitory activity; also recorded: potent inhibitors of neurite outgrowth	–	28.5%	–	–	–	–	–	–	–	–	–	–	–	–	–	–
CC(=O)N[C@H]1CSSC[C@@H](C(N)=O)NC(=O)[C@H](CC(=O)O)NC(=O)[C@H](C(C)C)NC(=O)CNC(=O)[C@H](Cc2c[nH]cn2)NC(=O)[C@H](C)NC1=O [N-Ac-CAHGVDC-NH2, reference compound] (Ac-CAHGVDC-NH2; disulfide 1-7)	–	–	–	–	–	inactive	> 100 µM	> 100 µM	> 100 µM	> 100 µM	4 ± 6.9%	–	–	–	–	–	–	–	–
CC(=O)N[C@H]1CSSC[C@@H](C(N)=O)NC(=O)[C@H](CO)NC(=O)[C@H](CO)NC(=O)[C@H](C(C)C)NC(=O)CNC(=O)[C@H](Cc2c[nH]cn2)NC(=O)[C@H](CO)NC1=O [reference compound] (Ac-CSHGVSSC-NH2; disulfide 1-8)	–	–	–	–	–	inactive	> 100 µM	> 100 µM	> 100 µM	> 100 µM	-5.6 ± 5.9%	–	–	–	–	–	–	–	–
CC(=O)N[C@H]1CSSC[C@@H](C(N)=O)NC(=O)[C@H](CO)NC(=O)[C@H](CO)NC(=O)[C@H](C(C)C)NC(=O)[C@H](C)NC(=O)[C@H](Cc2c[nH]cn2)NC(=O)[C@H](CO)NC1=O (Ac-CSHAVSSC-NH2; disulfide 1-8)	–	–	–	–	–	disrupted the endothelial cell monolayer; also recorded: retracted from one another and round up	> 100 µM	> 100 µM	> 100 µM	> 100 µM	-12.6 ± 6.4%	1%	−3%	−3%	12%	17%	7%	relatively inactive	complete
